In patent US20240181049A1, “HARNESSING THE POWER OF MICROBIOTA AND METABOLITES FOR THE TREATMENT OF CANCER” (UTI LIMITED PARTNERSHIP, priority 2019, published 2024):

What was measured:
Type in all cases: cell-based, mice
[1] = system: naïve CD4^+ T cells; test: Naive CD4+ T cells with anti-CD3/anti-CD28 coated beads; conditions: levels of adenosine in the serum
Excerpt: (§1) FIG. 4A-4K: Effect of inosine on T cell differentiation and dependency on classical dendritic cells of ICB therapy efficacy. (a) Scatter plot of untargeted metabolomics data in the serum of anti-CTLA-4 treated, tumor-bearing B.p. monocolonized compared to C.sp. monocolonized and germ-free (GF) mice. Grey circles or dotted grey circles depict inosine or inosine fragments/adducts, respectively. […] (c) Naïve CD4^+ T cells were co-cultured with bone marrow derived dendritic cells and IFN-γ. Quantification of T-bet^+CD3ε^+CD4^+ T cells 48 hours after co-culture in the presence or absence of inosine, A2A receptor inhibitor (ZM241385), cell permeable cAMP (db-cAMP) and protein kinase A inhibitor (RP-8-CPT-CAMPS). (d) Same as (c) without IFN-γ. (e) Representative plot and quantification (left and right panel) of phospho-CREB (Ser133) levels in naïve CD4^+ T cells cultured with anti-CD3/anti-CD28 coated beads for 1 hour in the presence or absence of inosine. (f) Schematic overview of experimental setup to deplete classical dendritic cells during MC38 tumor challenge and anti-CTLA-4 treatment. Intratumoral (g) frequency of CD8^+ T cells (h) IFN-γ^+CD8^+ T cells. (i and j) same as (g and h), but CD4^+ T cells and (k) tumor weight at […]. Data are mean±SEM and pooled from two individual experiments (a-b) n=5-8 samples/group (c-e) 10-15 biological replicates/group (f-k) 10 mice/group. *, P<0.05; **, P<0.01; ***, P<0.001; ****, P<0.0001
FIG. 16A-16J: Context dependent effect of inosine on Th1 T cell differentiation. (a) Naïve CD4^+ T cells were co-cultured with bone marrow derived dendritic cells without IFN-γ. Quantification of T-bet^+CD3e^+CD4^+ T cells 48 hours after co-culture in the presence or absence of inosine and anti-CTLA-4, as indicated. (b) Naïve CD4^+ T cells were cultured anti-CD3/anti-CD28 coated beads at a ratio of 1:1 without IFN-γ for 48 hours. Representative plot and quantification of IL12Rβ2 surface expression on CD4^+ T cells in the presence or absence of inosine (left and right panel). (c) Quantification of T-bet^+CD3e^+CD4^+ T cells 48 hours after co-culture in the presence or absence of inosine, db-cAMP and anti-CTLA-4 as indicated. (d) Naïve, A2AR-deficient CD4^+ T cells were cultured with anti-CD3/anti-CD28 coated beads at a ratio of 1:1 without IFN-γ. Quantification of T-bet^+CD3e^+CD4^+ T cells 48 hours after co-culture in the presence or absence of inosine or db-cAMP (e) Representative plot and quantification (left and right panel) of pCREB expression of anti-CD3/anti-CD28 bead co-cultured CD4^+ T cells in the presence or absence of inosine or db-cAMP 1 hour after stimulation. Analysis through flow cytometry. (f and g) Naïve, wild type CD4^+ T cells were cultured with anti-CD3/anti-CD28 coated beads at a ratio of 1:1. Il12rb2 and Ifng gene transcripts (normalized to Gapdh) were evaluated 24 and 48 hours following inosine (1 mM) stimulation. Expression was normalized to cells treated with medium. Analysis through quantitative PCR assay (h) Naïve CD4^+ T cells were cultured with anti-CD3/anti-CD28 coated beads at a ratio of 1:1 without IFN-γ for 24 hours. Then inosine or vehicle was added at the indicated concentrations for another 48 hours before T cell differentiation and activation was assessed. (i) Adenosine concentrations in the duodenal-, jejunal- or cecal content of B.p. monocolonized mice and in the serum of B.p. or C.sp. monocolonized anti-CTLA-4 treated mice. (j) Naïve CD4^+ T cells were cultured with anti-CD3/anti-CD28 coated beads at a ratio of 1:1 without IFN-γ for 24 hours. Adenosine or was added then in the indicated concentrations for another 48 hours followed by T cell differentiation and activation was assessed through flow cytometry. […]

[2] = system: naïve OVA323-339-specific OT-II CD4^+ T cells; test: BMDC / naive OT-II CD4+ T cell co-culture, Th1 differentiation; conditions: with IFN-γ
Excerpt: as §1
Bone marrow derived dendritic cells (BMDCs) were generated from flushed bone marrow cells, maintained in RPMI-1640 (Sigma) supplemented with 10% FBS, 50 μm 2-Mercaptoethanol (Sigma) 100 units/ml penicillin, 100 μg/ml streptomycin sulfate and 20 ng/ml rm GM-CSF (R&D). Medium was exchanged after 48 hours and 72 hours. 5 days after culture, a magnetic cell sorting step was performed to enrich for CD11c^+ cells (Miltenyi Biotec). CD11c^+ cells were seeded in 96 flat bottom wells and pulsed with 20 ng/ml OVA323-339 and 100 ng/ml LPS (both Sigma) for 18 hours. In some conditions BMDCs were also cultured with 10 ng/ml rmIFN-γ (R&D).
Negative selection magnetic cell sorting (Miltenyi Biotec) was used to enrich naïve OT-II CD4^+ T cells. Naïve OT-II CD4^+ T cells were then co-cultured with BMDCs at a ratio of 2:1 or stimulated with anti-CD3/anti-CD28 T cell activation beads (Thermofisher) at a ratio of 1:1 for 48 hours prior to restimulation with PMA/lonomycin in the presence of Brefeldin-A and analysis (see Single cell preparation and flow cytometry for details). In some conditions cells were additionally cultured with various combinations of 2 μg/ml anti-CTLA-4, 100 μM db-cAMP (Sigma), 5 μM ZM 241385 (Sigma), 300 μM Rp-8-CPT-CAMPS (Cayman Chemical) or 2 mM inosine (Sigma) as described previously (He et al., 2017; Yao et al., 2013).

[3] = system: A2AR-deficient CD4^+ T cells; test: A2AR-deficient naive CD4+ T cells with anti-CD3/anti-CD28 coated beads
Experimental: FIG. 16A-16J: Context dependent effect of inosine on Th1 T cell differentiation. (a) Naïve CD4^+ T cells were co-cultured with bone marrow derived dendritic cells without IFN-γ. Quantification of T-bet^+CD3e^+CD4^+ T cells 48 hours after co-culture in the presence or absence of inosine and anti-CTLA-4, as indicated. (b) Naïve CD4^+ T cells were cultured anti-CD3/anti-CD28 coated beads at a ratio of 1:1 without IFN-γ for 48 hours. Representative plot and quantification of IL12Rβ2 surface expression on CD4^+ T cells in the presence or absence of inosine (left and right panel). (c) Quantification of T-bet^+CD3e^+CD4^+ T cells 48 hours after co-culture in the presence or absence of inosine, db-cAMP and anti-CTLA-4 as indicated. […] Quantification of T-bet^+CD3e^+CD4^+ T cells 48 hours after co-culture in the presence or absence of inosine or db-cAMP (e) Representative plot and quantification (left and right panel) of pCREB expression of anti-CD3/anti-CD28 bead co-cultured CD4^+ T cells in the presence or absence of inosine or db-cAMP 1 hour after stimulation. […] Il12rb2 and Ifng gene transcripts (normalized to Gapdh) were evaluated 24 and 48 hours following inosine (1 mM) stimulation. […] Analysis through quantitative PCR assay (h) Naïve CD4^+ T cells were cultured with anti-CD3/anti-CD28 coated beads at a ratio of 1:1 without IFN-γ for 24 hours. […]

SMILES: Nc1ncnc2c1ncn2[C@@H]1O[C@H](CO)[C@@H](O)[C@H]1O [adenosine, reference compound]
- Th1 activation and effector function, adenosine dose response [1]: insufficient to promote Th1 activation and effector function

SMILES: CCCC(=O)Nc1ncnc2c1ncn2[C@@H]1O[C@@H]2COP(=O)(O)O[C@H]2[C@H]1OC(=O)CCC [db-CAMP, reference compound]
- Th1 differentiation ([2]; 100 μM db-cAMP): restored Th1 differentiation and bypassed the need for inosine
- Th1 differentiation and phosphorylation of CREB [3]: increased Th1 differentiation and phosphorylation of CREB in A2AR-deficient T cells

SMILES: Nc1nc(NCCc2ccc(O)cc2)nc2nc(-c3ccco3)nn12 [ZM241385, reference compound]
- effect of inosine on Th1 differentiation ([2]; inhibitor added (5 μM ZM 241385; 300 μM Rp-8-CPT-CAMPS)): completely abrogated the effect of inosine
